Experimental data taken from the supplement of paper PMC5908809.

Columns and labels:
[1] = tested on: normal NK cells expanded with K562-aAPC; assay: percent inhibition of viability; higher = more inhibition; settings: 72 h, IL-2 2.5 ng/mL
Method: (§1)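 Drug sensitivity and resistance testing on K562-aAPC-expanded normal NK cells: 5 concentrations (10-fold steps over a 10,000-fold range), 72 h at 37 °C, viability by CellTiter-Glo normalised to DMSO and benzethonium chloride controls; DSS from the fitted curve.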

[2] = tested on: DERL-7 (IL-2 2.5 ng/mL); assay: as above; settings: 72 h
[3] = tested on: IMC-1 (IL-2 20 ng/mL); assay: as above; settings: 72 h
[4] = tested on: KAI3 (IL-2 2.5 ng/mL); assay: as above; settings: 72 h
[5] = tested on: KHYG-1 (IL-2 2.5 ng/mL); assay: as above; settings: 72 h
[6] = tested on: NK-92 (IL-2 2.5 ng/mL); assay: as above; settings: 72 h
[7] = tested on: NK-YS (IL-2 2.5 ng/mL); assay: as above; settings: 72 h
[8] = tested on: NKL (IL-2 2.5 ng/mL); assay: as above; settings: 72 h
[9] = tested on: SNK-6 (IL-2 2.5 ng/mL); assay: as above; settings: 72 h
[10] = tested on: YT (IL-2 2.5 ng/mL); assay: as above; settings: 72 h
[11] = tested on: normal primary NK cells, pool 1 (3 donors) (IL-2 2.5 ng/mL); assay: as above; settings: 72 h
[12] = tested on: normal primary NK cells, pool 1 (3 donors), resting (IL-2 0 ng/mL); assay: as above; settings: 72 h
[13] = tested on: normal primary NK cells, pool 2 (3 donors) (IL-2 2.5 ng/mL); assay: as above; settings: 72 h
[14] = tested on: normal primary NK cells, pool 3 (3 donors) (IL-2 2.5 ng/mL); assay: as above; settings: 72 h
[15] = tested on: normal NK cells expanded with K562-aAPC; assay: drug sensitivity score (DSS) (DSS units); higher = more sensitive; extreme values may be limits of the assay; settings: 72 h; IL-2 2.5 ng/mL
Method: as §1

[16] = tested on: DERL-7 (IL-2 2.5 ng/mL); assay: as above; settings: 72 h
[17] = tested on: IMC-1 (IL-2 20 ng/mL); assay: as above; settings: 72 h
[18] = tested on: KAI3 (IL-2 2.5 ng/mL); assay: as above; settings: 72 h
[19] = tested on: KHYG-1 (IL-2 2.5 ng/mL); assay: as above; settings: 72 h
[20] = tested on: NK-92 (IL-2 2.5 ng/mL); assay: as above; settings: 72 h
[21] = tested on: NK-YS (IL-2 2.5 ng/mL); assay: as above; settings: 72 h
[22] = tested on: NKL (IL-2 2.5 ng/mL); assay: as above; settings: 72 h
[23] = tested on: SNK-6 (IL-2 2.5 ng/mL); assay: as above; settings: 72 h
[24] = tested on: YT (IL-2 2.5 ng/mL); assay: as above; settings: 72 h
[25] = tested on: normal primary NK cells, pool 1 (3 donors) (IL-2 2.5 ng/mL); assay: as above; settings: 72 h
[26] = tested on: normal primary NK cells, pool 1 (3 donors), resting (IL-2 0 ng/mL); assay: as above; settings: 72 h
[27] = tested on: normal primary NK cells, pool 2 (3 donors) (IL-2 2.5 ng/mL); assay: as above; settings: 72 h
[28] = tested on: normal primary NK cells, pool 3 (3 donors) (IL-2 2.5 ng/mL); assay: as above; settings: 72 h

O=C(O)CCCCC(CCSCc1ccccc1)SCc1ccccc1 (stereo not given) [CPI-613] (max concentration tested 10000 nM)
percent inhibition of viability [%]
Settings | 1 nM | 10 nM | 100 nM | 1000 nM | 10000 nM
[1] | -7.1 | -6.01 | -4.94 | -0.06 | 8.33
[2] | 0.05 | -0.43 | -0.74 | -7.69 | 0.16
[3] | -2.98 | -1.62 | -2.71 | -2.84 | 9.03
[4] | 2.88 | -5.51 | 1.38 | 3.07 | 13.6
[5] | -0.71 | -6.53 | -1.09 | 2.22 | 14.3
[6] | -12.9 | -8.45 | -13 | 17.1 | 13.7
[7] | -0.06 | -3.64 | -3.63 | 4.79 | 12.5
[8] | -9.11 | -4.72 | -5.85 | 9.97 | -1.95
[9] | 2.68 | 9.26 | 7.02 | 3.27 | 15.4
[10] | -4.82 | -6.21 | -4.86 | 4.79 | 13.6
[11] | -0.75 | 13.6 | 2.91 | 3.14 | 0.88
[12] | -1.85 | 9.03 | 13.2 | 15.7 | 14.9
[13] | -4.63 | 4.64 | 5.89 | 2.06 | 9.6
[14] | -7.27 | -0.78 | 1.21 | 3.31 | 2.34

Settings | drug sensitivity score
[15] | 0
[16] | 0
[17] | 0
[18] | 0.36
[19] | 0.38
[20] | 1.68
[21] | 0.31
[22] | 0
[23] | 0.07
[24] | 0.45
[25] | 0
[26] | 3.6
[27] | 0
[28] | 0

C#Cc1cccc(Nc2ncnc3cc(OC)c(OCCCCCCC(=O)NO)cc23)c1 [CUDC-101] (max concentration tested 10000 nM)
percent inhibition of viability [%]
Settings | 1 nM | 10 nM | 100 nM | 1000 nM | 10000 nM
[1] | -2.26 | 1.39 | 1.83 | 75.4 | 101
[2] | -3.07 | -2.96 | 19.3 | 100 | 101
[3] | -4.07 | -5.13 | -1.06 | 48.9 | 101
[4] | -3.15 | 0.88 | 27.8 | 77.2 | 105
[5] | 1.82 | 3.01 | 36.4 | 99.1 | 106
[6] | 9.73 | -1.07 | 19.2 | 85.7 | 105
[7] | -4.37 | 0.36 | 0.68 | 57.3 | 105
[8] | -15.6 | -12.1 | 1.83 | 90.5 | 108
[9] | 11.7 | 10.8 | 24.7 | 78.1 | 100
[10] | 0.23 | 0.94 | 9.37 | 95.4 | 106
[11] | -3.28 | -4.06 | 12.8 | 88.8 | 98.8
[12] | 10.4 | 0.86 | 30.2 | 78.6 | 92.4
[13] | -9.31 | -5.49 | 9.37 | 84.5 | 97
[14] | -12 | 1.9 | 2.2 | 82.8 | 99.5

Settings | drug sensitivity score
[15] | 14.3
[16] | 21.1
[17] | 11.6
[18] | 17.9
[19] | 22.6
[20] | 18.1
[21] | 12.4
[22] | 16.5
[23] | 17.6
[24] | 18.8
[25] | 17.9
[26] | 18.1
[27] | 16.7
[28] | 15.3

CC[C@@]1(O)C(=O)OCc2c1cc1n(c2=O)Cc2cc3ccccc3nc2-1 [Camptothecin] (max concentration tested 5000 nM)
percent inhibition of viability [%]
Settings | 0.5 nM | 5 nM | 50 nM | 500 nM | 5000 nM
[1] | 4.05 | 11.2 | 54.7 | 59.6 | 97.7
[2] | 1 | 20.8 | 97.7 | 92.9 | 100
[3] | -1.32 | 4.46 | 99.7 | 100 | 100
[4] | 11.5 | 49.2 | 86.9 | 62.4 | 97.2
[5] | -0.47 | 50.6 | 101 | 102 | 99.9
[6] | 4.55 | 41.4 | 101 | 102 | 99.6
[7] | 0.45 | 66.1 | 93.3 | 87.5 | 100
[8] | 11.3 | 91.1 | 102 | 98.4 | 92.3
[9] | 19.8 | 56.5 | 96.8 | 98 | 99.4
[10] | -3.33 | 5.46 | 90 | 100 | 99.6
[11] | -11.7 | 2.76 | -4.81 | 19.9 | 41.6
[12] | -1.99 | 11.5 | -26.2 | -25.7 | -5.52
[13] | -7.85 | 0.79 | 8.18 | 26.8 | 60.9
[14] | 0.98 | 3.16 | 10.9 | 36.9 | 60.6

Settings | drug sensitivity score
[15] | 19.8
[16] | 33.3
[17] | 31
[18] | 36.2
[19] | 36.8
[20] | 35.6
[21] | 38.3
[22] | 43.1
[23] | 37.5
[24] | 29.5
[25] | 4.65
[26] | 0
[27] | 6.31
[28] | 8.23

COc1cc2c(Oc3ccc4[nH]c(C)cc4c3F)ncnc2cc1OCCCN1CCCC1 [Cediranib] (max concentration tested 1000 nM)
percent inhibition of viability [%]
Settings | 0.1 nM | 1 nM | 10 nM | 100 nM | 1000 nM
[1] | -3.67 | -0.35 | -1.67 | 10.2 | 9.48
[2] | 0.36 | 1.65 | 5.2 | 3.45 | 7.76
[3] | -5.84 | 1.16 | -0.8 | 8.28 | 17.6
[4] | 4.2 | -2.39 | -4.78 | -7.3 | 2.49
[5] | 4.26 | 1.2 | 0.25 | 3.56 | 5.7
[6] | -10.6 | 3.93 | 7.82 | 10.5 | 25.9
[7] | -2.57 | -1.64 | -1.64 | -2.9 | 4.62
[8] | -22.1 | -12.6 | -8.18 | 4.3 | -2.96
[9] | -0.01 | -5.98 | -7.81 | 1.67 | -2.98
[10] | -2.86 | -1.1 | -1.25 | -2.55 | 7.27
[11] | 4.11 | -11.2 | -8.24 | -9.08 | -10.8
[12] | 4.39 | -7.82 | 2.26 | -0.33 | 6.25
[13] | -4.71 | 1.73 | 4.28 | -4.99 | 7
[14] | -13.7 | -14.2 | -5.69 | -12.7 | -3.19

Settings | drug sensitivity score
[15] | 0.03
[16] | 0
[17] | 1.2
[18] | 0
[19] | 0
[20] | 1.88
[21] | 0
[22] | 0
[23] | 0
[24] | 0
[25] | 0
[26] | 0
[27] | 0
[28] | 0

Cc1ccc(-c2cc(C(F)(F)F)nn2-c2ccc(S(N)(=O)=O)cc2)cc1 [Celecoxib] (max concentration tested 10000 nM)
percent inhibition of viability [%]
Settings | 1 nM | 10 nM | 100 nM | 1000 nM | 10000 nM
[1] | 5.69 | 5.19 | 8.1 | 13.1 | 11.9
[2] | -4.04 | -0.66 | 2.98 | 0.77 | 20.1
[3] | -1.63 | 4.12 | 3.17 | 8.92 | 21.4
[4] | -0.1 | 5.86 | 3.78 | 10.9 | 16.6
[5] | -2.14 | 0.22 | 3.78 | 5.35 | 11.5
[6] | -11.1 | 9.29 | 13.9 | 6.91 | 36.8
[7] | 3.79 | 1.41 | 5.74 | 5.5 | 17.7
[8] | 12.9 | 8.06 | 8.99 | 8.49 | 13.6
[9] | 7.19 | 19.3 | 11.5 | 33.2 | 29.1
[10] | 6.8 | 6.48 | 10.3 | 10.8 | 21.6
[11] | -3.14 | -6.46 | -5.04 | -13.6 | 17.4
[12] | -5.64 | -19.9 | -6.8 | -14.5 | 38.8
[13] | -5.46 | -3.07 | 8.51 | -1.27 | 21.4
[14] | -11.6 | 1.86 | 9.55 | -0.12 | 12.8

Settings | drug sensitivity score
[15] | 0.46
[16] | 0.68
[17] | 1.17
[18] | 0.73
[19] | 0
[20] | 2.8
[21] | 0.44
[22] | 0
[23] | 7.44
[24] | 1.78
[25] | 0.17
[26] | 1.32
[27] | 0.61
[28] | 0.08
